By half-life is commonly meant how long it takes for the measured level to halve. Usually Log D stands for the decadic logarithm of the distribution of all forms, ionised or not, between an organic phase and buffer at a given pH.

The source of these data is PMC3740032 (Bioorganic & medicinal chemistry, 2013).

A short description of series [1]: Prodrug aqueous stability at pH 7.4, 6.0 and 1.2. The format is physicochemical.
The conditions of series [2]: cited from earlier work.
For series [3] the following is noted: cited from earlier work. The source holds these as a separate data set.
The test system of series [4] is BlaC. Conditions: cited from earlier work.

Where “and” joins values, the source holds several entries; their conditions need not be identical. Identical values can stand only once.

For `CC(C)OC(=O)OC(C)OC(=O)C1=C(S[C@@H]2CN[C@H](C(=O)N(C)C)C2)[C@H](C)[C@@H]2[C@@H]([C@@H](C)O)C(=O)N12` (some centres unmarked) [Compound 2], the “% of each diastereomer hydrolyzed to 1” value in series [1] (physiological pH 7.4, period of 2 hours) was 10% and 13%.

Regarding `C[C@@H](O)[C@H]1C(=O)N2C(C(=O)OCOC(=O)O[C@H]3CCCCc4ccccc43)=C(S[C@@H]3CN[C@H](C(=O)N(C)C)C3)[C@H](C)[C@H]12` [Compound 19, (S)-Benzosuber-1-yloxycarbonyloxymethyl (1R, 5S,6S)-2-{[(2S,4S)-2-(N,N-dimethylcarbamoyl)pyrrolidin-4-yl]thio}-6-[(1R)-1-hydroxyethyl]-1-methylcarbapen-2-em-3-carboxylate], the “times more stable to hydrolysis compared with 1-tetralyl (18 and 21) and 1-indanyl (17 and 20) prodrugs” value came out at 37 times in series [1] (intestinal pH) and 20 times in series [1] (physiological pH).

As to `C[C@@H](O)[C@H]1C(=O)N2C(C(=O)OCOC(=O)O[C@@H]3CCc4ccccc43)=C(S[C@@H]3CN[C@H](C(=O)N(C)C)C3)[C@H](C)[C@H]12` [Compound 20, (R)-Indan-1-yloxycarbonyloxymethyl (1/R, 5S,6S)-2-{[(2S,4S)-2-(N,N-dimethylcarbamoyl)pyrrolidin-4-yl]thio}-6-[(1/R)-1-hydroxyethyl]-1-methylcarbapen-2-em-3-carboxylate], in series [1] (buffer, pH 7.4), the half-life at 100 µM was less than 1 min.

Turning to `C[C@@H](O)[C@H]1C(=O)N2C(C(=O)OCOC(=O)O[C@@H]3CCCCc4ccccc43)=C(S[C@@H]3CN[C@H](C(=O)N(C)C)C3)[C@H](C)[C@H]12` [Compound 22, (R)-Benzosuber-1-yloxycarbonyloxymethyl (1R,5S, 6S)-2-{[(2S,4S)-2-(N,N-dimethylcarbamoyl)pyrrolidin-4-yl]thio}-6-[(1R)-1-hydroxyethyl]-1-methylcarbapen-2-em-3-carboxylate], the entries for the “times more stable to hydrolysis compared with 1-tetralyl (18 and 21) and 1-indanyl (17 and 20) prodrugs” value in series [1] (intestinal pH) and in series [1] (physiological pH) were 37 times and 20 times, respectively.

As for `CC(OC(=O)O[C@H]1CCCCc2ccccc21)OC(=O)C1=C(S[C@@H]2CN[C@H](C(=O)N(C)C)C2)[C@H](C)[C@@H]2[C@@H]([C@@H](C)O)C(=O)N12` (stereo partly drawn) [Compound 23a, (1S,1′S/R)-Benzosuber-1-yloxycarbonyloxyethyl (1R,5S,6S)-2-{[(2S,4S)-2-(N,N-dimethylcarbamoyl)pyrrolidin-4-yl]thio}-6-[(1R)-1-hydroxyethyl]-1-methylcarbapen-2-em-3-carboxylate], the “improvement of stability relative to prodrug 19” value in series [1] (100 µM) is recorded as “about 2 fold”.

`CC(=O)N1C[C@@H](SC2=C(C(=O)OCOC(=O)O[C@H]3CCCCc4ccccc43)N3C(=O)[C@H]([C@@H](C)O)[C@H]3[C@H]2C)C[C@H]1C(=O)N(C)C` [Compound 24a, (S)-Benzosuber-1-yloxycarbonyloxymethyl (1R,5S,6S)-2-{[(2S,4S)-1-acetyl-2-(N,N-dimethylcarbamoyl)pyrrolidin-4-yl]thio}-6-[(1R)-1-hydroxyethyl]-1-methylcarbapen-2-em-3-carboxylate]: the “change in the hydrolysis rate relative to prodrug 19” value in series [1] (N-acetyl derivative, aqueous buffers) is “no significant change”.

On to `C[C@@H](O)[C@H]1C(=O)N2C(C(=O)O)=C(S[C@@H]3CN[C@H](C(=O)N(C)C)C3)[C@H](C)[C@H]12` [Meropenem], for which, in series [2], the “Log D” value is less than −2.5. Further, in series [3], the oral absorption entry is on record as “negligible”.

In the case of `O=C(O)[C@H]1/C(=C/CO)O[C@@H]2CC(=O)N21` [clavulanate], the “inhibition of BlaC” value in series [4] is “irreversibly inhibited”.
